Test results taken from article PMC5559473, “Screening of TB Actives for Activity against Nontuberculous Mycobacteria Delivers High Hit Rates” (Frontiers in Microbiology, 2017).
In brackets after ≈: the same amount, converted by molar mass. Where two headings read alike, the source gives them in different places.

Legend:
M. avium 11 [1] = experiment: Bactericidal assay (CFU, fold kill); assay type: cell-based, Mycobacterium avium; conditions: 10^7 CFU/mL exposed to MIC90 for 4 days, CFU vs starting inoculum
[2] = rat, cited from earlier work; for Cmax: BLQ = < 1 ng/mL
M. tuberculosis H37Rv = experiment: Dose-response growth inhibition (broth microdilution); assay type: cell-based; conditions: Mycobacterium tuberculosis, 168 h
M. avium 11 [3] = experiment: as above; assay type: cell-based, Mycobacterium avium
M. abscessus Bamboo [4] = experiment: as above; assay type: cell-based, Mycobacterium abscessus; conditions: Mycobacteroides abscessus, 72 h
M. abscessus Bamboo [5] = experiment: Bactericidal assay (CFU, fold kill); assay type: cell-based, Mycobacterium abscessus; conditions: 10^7 CFU/mL exposed to MIC90 for 3 days, CFU vs starting inoculum
M. tuberculosis = test system: M. tuberculosis; set-up: method as in http://www.pathogenbox.org/; conditions: as reported by MMV, ref http://www.pathogenbox.org/; cited from earlier work
[6] = M. tuberculosis H37Rv, 7 days, concentration that inhibits 50% of growth, read-out: MIC50
[7] = M. tuberculosis H37Rv, 7 days, concentration that inhibits 90% of growth, read-out: MIC90
[8] = Mycobacterium avium, 96 h, M. avium 11, 4 days, read-out: MIC50
[9] = Mycobacterium avium, 96 h, M. avium 11, 4 days, read-out: MIC90
[10] = M. abscessus Bamboo, 3 days, read-out: MIC50
[11] = M. abscessus Bamboo, 3 days, read-out: MIC90
[12] = IV 1 mg/kg, mean n = 2, ref http://www.pathogenbox.org/
[13] = PO 5 mg/kg, mean n = 2, ref http://www.pathogenbox.org/

| SMILES | Fold kill at MIC90 (M. avium 11 [1]) | AUCinf ([2]; in vivo, iv, 1 mg/kg) | AUClast ([2]; in vivo, iv, 1 mg/kg) | C0 ([2]; in vivo, iv, 1 mg/kg) | Cl ([2]; in vivo, iv, 1 mg/kg) | AUCinf ([2]; in vivo, po, 5 mg/kg) | AUClast ([2]; in vivo, po, 5 mg/kg) | tmax ([2]; in vivo, po, 5 mg/kg) | %F ([2]; in vivo) | MIC50 (M. tuberculosis H37Rv; [6]) | MIC90 (M. tuberculosis H37Rv; [7]) | MIC50 (M. avium 11 [3]; [8]) | MIC90 (M. avium 11 [3]; [9]) | MIC50 (M. abscessus Bamboo [4]; [10]) | MIC90 (M. abscessus Bamboo [4]; [11]) | Fold kill at MIC90 (M. abscessus Bamboo [5]) | Reported MIC (M. tuberculosis) | AUCinf [2, 12] | AUClast [2, 12] | C0 [2, 12] | also measured |
| --- | --- | --- | --- | --- | --- | --- | --- | --- | --- | --- | --- | --- | --- | --- | --- | --- | --- | --- | --- | --- | --- |
| COc1ccc(OC)c(NCc2ccc3nc(N)nc(N)c3c2Cl)c1 [MMV675968] | NK (NK, “no kill,” i.e., CFU reduction < 10-fold at MIC90) | 900 ng·h/mL | 897 ng·h/mL | 1080 ng/mL | 18.7 mL/min/kg | 532 ng·h/mL | 504 ng·h/mL | 1 h | 11% | < 0.2 µM | 4 µM (≈ 1.44 µg/mL) | 0.2 µM (≈ 0.072 µg/mL) | 3 µM (≈ 1.08 µg/mL) | 10.5 µM (≈ 3.78 µg/mL) | 35 µM (≈ 12.6 µg/mL) | NK (NK, “no kill,” i.e., CFU reduction < 10-fold at MIC90) | – | – | – | – | – |
| Cc1cc(C)c2cc(C(=O)NC3CCCCCCC3)[nH]c2c1 [MMV687146] | NK (NK, “no kill,” i.e., CFU reduction < 10-fold at MIC90) | 935 ng·h/mL | 798 ng·h/mL | 2270 ng/mL | 18.2 mL/min/kg | 483 ng·h/mL | 456 ng·h/mL | 0.75 h | 11% | < 0.2 µM | < 0.2 µM | 3 µM (≈ 0.895 µg/mL) | 9 µM (≈ 2.69 µg/mL) | 0.8 µM (≈ 0.239 µg/mL) | 2 µM (≈ 0.597 µg/mL) | 100 fold | <0.024 µM | – | – | – | – |
| CCCCOC(=O)Nc1cc2nc(C3CCCCC3)[nH]c2cc1N1CCCC1 [MMV687730] | NK (NK, “no kill,” i.e., CFU reduction < 10-fold at MIC90) | – | – | – | – | – | – | – | – | < 0.2 µM | < 0.2 µM | 5 µM (≈ 1.92 µg/mL) | 22 µM (≈ 8.46 µg/mL) | 4 µM (≈ 1.54 µg/mL) | 8.5 µM (≈ 3.27 µg/mL) | 10 fold | 0.05 µM | 125 ng·h/mL | 108 ng·h/mL | 444 ng/mL | Cl [2, 12]: 166 mL/min/kg; Vss [2, 12]: 15.9 L/kg; t1/2 [2, 12]: 3.34 h; Cmax [2, 13]: NC (BLQ at all time points) |
| CC(=O)NC[C@H]1CN(c2ccc(-c3ccc(CNCc4cnn[nH]4)cc3)c(F)c2)C(=O)O1 [MMV688327, radezolid, reference compound] | NK (NK, “no kill,” i.e., CFU reduction < 10-fold at MIC90) | – | – | – | – | – | – | – | – | 0.5 µM (≈ 0.219 µg/mL) | 2 µM (≈ 0.877 µg/mL) | 4 µM (≈ 1.75 µg/mL) | 35 µM (≈ 15.3 µg/mL) | 3.8 µM (≈ 1.67 µg/mL) | 13 µM (≈ 5.7 µg/mL) | NK (NK, “no kill,” i.e., CFU reduction < 10-fold at MIC90) | 0.3 µM | – | – | – | – |
| CC(=O)NC[C@H]1CN(c2ccc(N3CCSCC3)c(F)c2)C(=O)O1 [MMV688756, sutezolid, reference compound] | NK (NK, “no kill,” i.e., CFU reduction < 10-fold at MIC90) | – | – | – | – | – | – | – | – | < 0.2 µM | 1.2 µM (≈ 0.424 µg/mL) | 0.4 µM (≈ 0.141 µg/mL) | 4 µM (≈ 1.41 µg/mL) | 4.2 µM (≈ 1.48 µg/mL) | 25 µM (≈ 8.84 µg/mL) | NK (NK, “no kill,” i.e., CFU reduction < 10-fold at MIC90) | 1.2 µM | – | – | – | – |
| Cc1ccccc1CN1CCC(O)(c2ccc(Cl)c(C(F)(F)F)c2)CC1 [MMV688846] | – | – | – | – | – | – | – | – | – | – | – | – | – | – | – | 10 fold | 0.4 µM | 464 ng·h/mL | 423 ng·h/mL | 563 ng/mL | Cl [2, 12]: 36.8 mL/min/kg; Vss [2, 12]: 14.4 L/kg; t1/2 [2, 12]: 9.78 h; %F ([2]; PO 5 mg/kg vs IV 1 mg/kg, ref http://www.pathogenbox.org/): <1%; Cmax [2, 13]: 3.19 ng/mL; AUCinf [2, 13]: 27.5 ng·h/mL; AUClast [2, 13]: 18.1 ng·h/mL; t1/2 [2, 13]: 4.6 h; tmax [2, 13]: 1.5 h; MIC50 (M. tuberculosis H37Rv; H37RV): 0.2 µM (≈ 0.0768 µg/mL); MIC90 (M. tuberculosis H37Rv; H37RV): 0.6 µM (≈ 0.23 µg/mL); MIC50 (M. avium 11 [3]; Mycobacterium avium, 11, 96 h): 20 µM (≈ 7.68 µg/mL); IC90 (M. avium 11 [3]; Mycobacterium avium, 11, 96 h, read-out: MIC90): > 50 µM; MIC50 (M. abscessus Bamboo [4]): 0.7 µM (≈ 0.269 µg/mL); MIC90 (M. abscessus Bamboo [4]): 1.5 µM (≈ 0.576 µg/mL) |
